Measurements reported in patent US8163906B2, “Dihydroquinone and dihydronaphthridine inhibitors of JNK” (Roche Palo Alto, LLC, priority 2007, dated 2012).
Where two headings read alike, the source gives them in different places.

Assays:
[1] = tested on: TNFα-induced IL-6 production; test: Rat in vivo TNFα-induced IL-6 production assay, oral gavage; set-up: species or system Female Wistar-Han rats; conditions: 30 mg/Kg, 30 min prior to TNF-α i.p. challenge, plasma 90 min after challenge
Protocol: Female Wistar-Han rats procured from Charles River Laboratories were allowed to acclimate for one week prior to use and achieve an approximate body weight of 101-130 g. Rats were administered test compound (N=8 per compound) via oral gavage 30 min prior to an intraperitoneal challenge of 0.5 μg recombinant rat TNF-α (Biosource). Blood was collected via cardiocentesis 90 min after TNF-α challenge. Plasma was prepared using lithium heparin separation tubes (BD microtainer) and frozen at −80° C. until analyzed. IL-6 levels were determined using a rat specific IL-6 ELISA kit (Biosource). The percent inhibition and ED50 values (calculated as the dose of compound at which […] is 50% of the control value) were determined.

Human JNK1α1 = Human JNK1α1 (Homo sapiens, UniProt P45983); test: JNK assay in vitro, phosphorylation of GST-ATF2 with [γ-33P] ATP (JNK1); type: biochemical; conditions: 1 μM ATF2, 30° C. 30 min
Human JNK1α1, sequence (P45983 1-384 isoform P45983-2): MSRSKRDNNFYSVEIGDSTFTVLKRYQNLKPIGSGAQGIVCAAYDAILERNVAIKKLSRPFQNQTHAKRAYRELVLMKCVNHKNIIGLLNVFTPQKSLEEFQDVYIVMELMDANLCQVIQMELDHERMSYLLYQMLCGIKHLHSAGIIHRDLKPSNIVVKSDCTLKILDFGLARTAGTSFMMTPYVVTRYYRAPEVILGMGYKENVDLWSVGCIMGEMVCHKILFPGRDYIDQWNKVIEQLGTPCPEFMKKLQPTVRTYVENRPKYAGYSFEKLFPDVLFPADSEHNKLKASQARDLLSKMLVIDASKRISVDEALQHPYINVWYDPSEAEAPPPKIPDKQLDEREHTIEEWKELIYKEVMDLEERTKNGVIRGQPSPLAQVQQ
Protocol: (§1) JNK activity was measured by phosphorylation of GST-ATF2 (19-96) with [γ-^33P] ATP. […] Human JNK2α2 assay contains 1 nM enzyme, 1 μM ATF2, 8 μM ATP with 1 uCi [γ-^33P] ATP. Human JNK1α1 assay contains 2 nM enzyme, 1 μM ATF2, 6 μM ATP with 1 μCi [γ-^33P] ATP. […] ATP. The enzyme assay was carried out in the presence or absence of several compound concentrations. JNK and compound were pre-incubated for 10 min., followed by initiation of the enzymatic reaction by adding ATP and the substrate. The reaction mixture was incubated at 30° C. for 30 min. […] The incorporation of ^33P into ATF2 was quantified on a microplate scintillation counter (Packard Topcount). Compound inhibition potency on JNK was measured by IC50 value generated from ten concentration inhibition curves fitted into the 3-parameter model: % inhibition=Maximum/(1+(IC50/[Inhibitor])^slope). Data were analyzed on Microsoft Excel for parameter estimation.

Human JNK2α2 = Human JNK2α2 (Homo sapiens, UniProt P45984); test: JNK assay in vitro, phosphorylation of GST-ATF2 with [γ-33P] ATP (JNK2); type: biochemical; conditions: ATP at Km (8 μM), 1 μM ATF2, 30° C. 30 min
Human JNK2α2, sequence (P45984 whole entry): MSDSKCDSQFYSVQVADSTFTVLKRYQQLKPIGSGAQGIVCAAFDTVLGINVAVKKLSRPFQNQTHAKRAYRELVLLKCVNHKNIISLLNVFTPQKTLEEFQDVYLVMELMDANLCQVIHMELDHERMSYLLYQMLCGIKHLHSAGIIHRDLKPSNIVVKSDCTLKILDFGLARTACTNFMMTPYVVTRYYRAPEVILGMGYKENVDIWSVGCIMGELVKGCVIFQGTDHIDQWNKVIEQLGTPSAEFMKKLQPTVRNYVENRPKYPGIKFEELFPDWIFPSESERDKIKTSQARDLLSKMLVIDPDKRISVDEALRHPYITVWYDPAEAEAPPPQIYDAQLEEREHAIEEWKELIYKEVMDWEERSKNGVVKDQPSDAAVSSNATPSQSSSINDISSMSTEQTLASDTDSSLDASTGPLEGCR
Protocol: as §1

[2] = ATP at Km (6 μM), read-out: IC50 vs. JNK1
[3] = IC50 vs. JNK1, ATP at Km (6 μM)

| SMILES | IC50 (Human JNK1α1; [2]) [nM] | melting point [°C] | IC50 (Human JNK2α2) [nM] | IL-6 Inhibition (%) [1] [%] | IC50 (Human JNK1α1; [3]) [nM] |
| --- | --- | --- | --- | --- | --- |
| COC(=O)c1c(Cc2ccc(S(=O)(=O)N3CCN(C)CC3)cc2)c(=O)c2ccc(Cl)cc2n1-c1ccccc1 [Compound 30, 7-chloro-3-[4-(4-methyl-piperazine-1-sulfonyl)-benzyl]-4-oxo-1-phenyl-1,4-dihydroquinoline-2-carboxylic acid methyl ester] | 35.5 | 223.3 to 226.6 | 86.3 | 46 | – |
| COC(=O)c1c(Cc2ccc(S(=O)(=O)N(C)C)cc2)c(=O)c2ccc(Cl)cc2n1-c1ccccc1 [Compound 32, 7-Chloro-3-(4-dimethylsulfamoyl-benzyl)-4-oxo-1-phenyl-1,4-dihydroquinoline-2-carboxylic acid methyl ester] | 44.5 | 218.1 to 219.5 | 129 | – | – |
| COC(=O)c1c(Cc2ccc(S(=O)(=O)N(C)CCO)cc2)c(=O)c2ccc(Cl)cc2n1-c1ccccc1 [Compound 59, 7-Chloro-3-{4-[(2-hydroxyethyl)-methyl-sulfamoyl]-benzyl}-4-oxo-1-phenyl-1,4-dihydroquinoline-2-carboxylic acid methyl ester] | 22.6 | – | 61.4 | – | – |
| COC(=O)c1c(Cc2ccc(S(=O)(=O)NCCO[Si](C)(C)C(C)(C)C)cc2)c(=O)c2ccc(Cl)cc2n1-c1ccccc1 [Compound 60, 3-{4-[2-(tert-Butyl-dimethyl-silanyloxy)-ethylsulfamoyl]-benzyl}-7-chloro-4-oxo-1-phenyl-1,4-dihydroquinoline-2-carboxylic acid methyl ester] | 1630 | – | 4980 | – | – |
| COC(=O)c1c(Cc2ccc(S(=O)(=O)N3CCN(C(=O)OC(C)(C)C)CC3)cc2)c(=O)c2ccc(Cl)cc2n1-c1ccccc1 [Compound 63, 3-[4-(4-tert-Butoxycarbonyl-piperazine-1-sulfonyl)-benzyl]-7-chloro-4-oxo-1-phenyl-1,4-dihydroquinoline-2-carboxylic acid methyl ester] | 98.7 | – | 212 | – | – |
| COC(=O)C(=O)NS(=O)(=O)c1ccc(Cc2c(C(=O)OC)n(-c3ccccc3)c3cc(Cl)ccc3c2=O)cc1 [Compound 64, 7-Chloro-3-[4-(methoxyoxalyl-sulfamoyl)-benzyl]-4-oxo-1-phenyl-1,4-dihydroquinoline-2-carboxylic acid methyl ester] | 603 | – | 2060 | – | – |
| COC(=O)c1c(Cc2ccc(S(=O)(=O)NCCO)cc2)c(=O)c2ccc(Cl)cc2n1-c1ccccc1 [Compound 65, 7-chloro-3-[4-(2-hydroxy-ethylsulfamoyl)-benzyl]-4-oxo-1-phenyl-1,4-dihydro-quinoline-2-carboxylic acid methyl ester] | 32.8 | 191.5 to 193.1 | 95.7 | – | – |
| COC(=O)c1c(Cc2ccc(S(=O)(=O)N3CCNCC3)cc2)c(=O)c2ccc(Cl)cc2n1-c1ccccc1.O=C(O)C(F)(F)F [Compound 66, 7-chloro-4-oxo-1-phenyl-3-[4-(piperazine-1-sulfonyl)-benzyl]-1,4-dihydro-quinoline-2-carboxylic acid methyl ester trifluoroacetate] | – | 203 to 205 | 44.5 | – | 18.1 |
| COC(=O)c1c(Cc2ccc(S(=O)(=O)N3CCNCC3)cc2)c(=O)c2ccc(Cl)cc2n1-c1ccccc1.Cl [Compound 67, 7-Chloro-4-oxo-1-phenyl-3-[4-(piperazine-1-sulfonyl)-benzyl]-1,4-dihydroquinoline-2-carboxylic acid methyl ester bishydrochloride] | – | 214 to 215.5 | 48.5 | – | 30.4 |
| COC(=O)c1c(Cc2ccc(S(=O)(=O)N3CCC(O)CC3)cc2)c(=O)c2ccc(Cl)cc2n1-c1ccccc1 [Compound 69, 7-Chloro-3-[4-(4-hydroxypiperidine-1-sulfonyl)-benzyl]-4-oxo-1-phenyl-1,4-dihydroquinoline-2-carboxylic acid methyl ester] | 18.4 | 170 to 171 | 47 | – | – |
| CC(=O)c1c(Cc2ccc(S(=O)(=O)N3CCC(O)CC3)cc2)c(=O)c2ccc(Cl)cc2n1-c1ccccc1 [Compound 70, 2-Acetyl-7-chloro-3-[4-(4-hydroxypiperidine-1-sulfonyl)-benzyl]-1-phenyl-1H-quinolin-4-one] | 134 | 145.5 to 147.2 | 399 | – | – |
| CC(=O)c1c(Cc2ccc(S(=O)(=O)N3CCN(C)CC3)cc2)c(=O)c2ccc(Cl)cc2n1-c1ccccc1 [Compound 72, 2-acetyl-7-chloro-3-[4-(4-methylpiperazine-1-sulfonyl)-benzyl]-1-phenyl-1H-quinolin-4-one] | 154 | 206.3 to 208 | 336 | – | – |
| CCC(=O)c1c(Cc2ccc(S(=O)(=O)N3CCN(C)CC3)cc2)c(=O)c2ccc(Cl)cc2n1-c1ccccc1 [Compound 80, 7-chloro-3-[4-(4-methylpiperazin-1-sulfonyl)benzyl]-1-phenyl-2-propionyl-1H-quinlin-4-one] | 193 | > 300 | 477 | – | – |
| COC(=O)c1c(Cc2ccc(S(=O)(=O)N3CCC(O)CC3)cc2)c(=O)c2ccc(F)cc2n1-c1ccccc1 [Compound 110] | 50.2 | 232 to 233 | 201 | – | – |

The next lines start with results.

| IC50 (Human JNK1α1; [2]) [nM] | melting point [°C] | IC50 (Human JNK2α2) [nM] | SMILES | IL-6 Inhibition (%) [1] [%] | IC50 (Human JNK1α1; [3]) [nM] |
| --- | --- | --- | --- | --- | --- |
| 48.1 | 240 to 242.6 | 118 | COC(=O)c1c(Cc2ccc(S(=O)(=O)NCC(C)(C)O)cc2)c(=O)c2ccc(Cl)cc2n1-c1ccccc1 [Compound 85, 3-[4-(2-Hydroxy-2-methylpropylsulfonamoyl)benzyl]-4-oxo-7-chloro-1-phenyl-1,4-dihydroquinoline-2-carboxylic acid methyl ester] | – | – |
| 33.4 | 135 to 136 | 83.2 | COC(=O)c1c(Cc2ccc(S(=O)(=O)N3CC[C@H](O)C3)cc2)c(=O)c2ccc(Cl)cc2n1-c1ccccc1 [Compound 87, 7-Chloro-3-[4-(3-hydroxypyrrolidine-1-sulfonyl)-benzyl]-4-oxo-1-phenyl-1,4-dihydroquinoline-2-carboxylic acid methyl ester] | – | – |
| 245 | – | 840 | CC(=O)c1c(Cc2ccc(S(=O)(=O)NCC(C)(C)O)cc2)c(=O)c2ccc(Cl)cc2n1-c1ccccc1 [Compound 88, 3-[4-(2-hydroxy-2-methylpropylsulfonamoyl)benzyl]-4-oxo-7-chloro-1-phenyl-2-acetyl-1,4-dihydroquinoline] | – | – |
| 32 | 175.3 to 180.3 | 86.7 | COC(=O)c1c(Cc2ccc(S(=O)(=O)C(C)CO)cc2)c(=O)c2ccc(Cl)cc2n1-c1ccccc1 (stereo not shown) [Compound 117] | – | – |
| 252 | – | 562 | COC(=O)c1c(Cc2cnn(C)c2)c(=O)c2ccc(C(F)(F)F)nc2n1-c1ccccc1 [Compound 129, 3-(1-methyl-1H-pyrazol-4-ylmethyl)-1-4-oxo-phenyl-7-trifluoromethyl-1H-[1,8]naphthyridine-2-carboxylic acid methyl ester] | – | – |
| 250 | 161 to 163 | 2100 | COC(=O)c1c(CN2CCC(N3CCOCC3)CC2)c(=O)c2ccc(F)cc2n1-c1ccccc1 [Compound 135] | – | – |
| 612 | 279.3 to 282.8 | 2090 | Nc1cccc(-n2c(-c3ncco3)c(Cc3ccccc3)c(=O)c3ccc(Cl)cc32)n1 [Compound 141, 1-(6-amino-pyridin-2-yl)-3-benzyl-7-chloro-2-oxazol-2-yl-1H-quinolin-4-one] | – | – |
